Like-named read-outs stand apart in the source and are kept apart here.
Experiments:
[1] = system: C1 B-ALL cell line; assay: Cytotoxicity assay, C1; assay type: cell-based, human; details: four days in culture, Alamar blue assay or automated microscopy, ± SD, three experiments
Method: (§1) Cell lines were cultured in Opti-MEM medium (Gibco, Life Technologies Corporation, Burlington, Ontario) supplemented with 10% heat inactivated fetal bovine serum (FBS) (Gibco), 100 units/ml penicillin and 100 units/ml streptomycin (Gibco) and 0.05 mM 2-mercaptoethanol (Sigma-Aldrich, Oakville, Ontario) in T25 flasks (Nalge Nunc, Rochester, New York) or T75 flasks (Corning Incorporated, Corning, New York). All cell cultures were maintained at 37°C in a humidified incubator with 5% CO2.
(§2) For cytotoxicity profiling of Aurora kinase inhibitors against leukemia cell lines, inhibitors or vehicle control (DMSO, Sigma-Aldrich) were diluted in 100 µl of Opti-MEM per well in 96 well plates (Grenier Bio-One, Monroe, North Carolina) in triplicate at final concentrations ranging from 1×10^−6 to 10 µM. 1×10^4 cells per well were seeded and plates were incubated for 4 days. Following incubation for 4 days, cell survival was quantified by Alamar blue assay (Invitrogen) or automated inverted microscopy using the Celigo Cell Cytometer (Cyntellect, San Diego, California). […] During this period of incubation, the absorbance at 570–620 nm was measured (Opsys MR Plate Reader, Dynex Technologies, Chantilly, Virginia) at various time points, depending on the cell line or sample. Percent survival was calculated by comparing the absorbance ratio of the test well to the control well multiplied by 100%, as indicated in the following formula: […]
(§3) For automated inverted microscopy, the number of cells in each well was determined using the direct cell counting application as described previously. Briefly, following adjustment of image acquisition settings for bright-field imaging, the wells containing cells and appropriate dilutions of inhibitors were individually scanned. Based on these images, analysis parameters, including intensity threshold and cell diameter, were modified for optimal inclusion of viable cells in treated and control wells. These parameters were applied for subsequent replicates involving the same leukemia cell line or sample. The percent survival was then calculated as a ratio of the number of cells in treated wells to the number of cells in control wells multiplied by 100%. Given that Aurora kinase inhibitors interfere with cytokinesis, cells that are committed to death may still contain enlarging but intact cytoplasmic content before the eventual loss of cytoplasmic membrane integrity. The accuracy of Alamar blue assay may be, in theory, affected by the timing of these events.

[2] = system: SEM B-ALL cell line; assay: Cytotoxicity assay, SEM; assay type: cell-based; details: Homo sapiens, 96 h, four days in culture, Alamar blue assay or automated microscopy, ± SD, three experiments
Method: as §1, §2, §3

[3] = system: B1 B-ALL cell line; assay: Cytotoxicity assay, B1; assay type: cell-based, human; details: four days in culture, Alamar blue assay or automated microscopy, ± SD, three experiments
Method: as §1, §2, §3

[4] = system: UOCB1 B-ALL cell line; assay: Cytotoxicity assay, UOCB1; assay type: cell-based, human; details: four days in culture, Alamar blue assay or automated microscopy, ± SD, three experiments
Method: as §1, §2, §3

[5] = system: Nalm6 B-ALL cell line; assay: Cytotoxicity assay, Nalm6; assay type: cell-based, human; details: four days in culture, Alamar blue assay or automated microscopy, ± SD, three experiments
Method: as §1, §2, §3

[6] = system: KOPN8 B-ALL cell line; assay: Cytotoxicity assay, KOPN8; assay type: cell-based, human; details: four days in culture, Alamar blue assay or automated microscopy, ± SD, three experiments
Method: as §1, §2, §3

[7] = system: Molt-3 T-ALL cell line; assay: Cytotoxicity assay, Molt-3; assay type: cell-based, human; details: T-ALL cell line Molt-3, four days in culture, Alamar blue assay or automated microscopy, ± SD, three experiments
Method: as §1, §2, §3

[8] = system: Molm13 AML cell line; assay: Cytotoxicity assay, Molm13; assay type: cell-based, human; details: four days in culture, Alamar blue assay or automated microscopy, ± SD, three experiments
Method: as §1, §2, §3

[9] = system: MV4-11 AML cell line; assay: Cytotoxicity assay, MV4-11; assay type: cell-based, human; details: AML cell line MV4-11, four days in culture, Alamar blue assay or automated microscopy, ± SD, three experiments
Method: as §1, §2, §3

[10] = system: TIB-202 AML cell line; assay: Cytotoxicity assay, TIB-202; assay type: cell-based, human; details: AML cell line TIB-202, four days in culture, Alamar blue assay or automated microscopy, ± SD, three experiments
Method: as §1, §2, §3

[11] = system: NB4 APML cell line; assay: Cytotoxicity assay, NB4; assay type: cell-based, human; details: four days in culture, Alamar blue assay or automated microscopy, ± SD, three experiments
Method: as §1, §2, §3

[12] = system: HL-60 APML cell line; assay: Cytotoxicity assay, HL-60; assay type: cell-based, human; details: APML cell line HL-60, four days in culture, Alamar blue assay or automated microscopy, ± SD, three experiments
Method: as §1, §2, §3

[13] = system: HL-60 RA APML cell line; assay: Cytotoxicity assay, HL-60 RA; assay type: cell-based, human; details: APML cell line HL-60 RA, four days in culture, Alamar blue assay or automated microscopy, ± SD, three experiments
Method: as §1, §2, §3

[14] = system: Normal Lymphocytes; assay: Cytotoxicity assay, normal lymphocytes; assay type: cell-based, human; details: normal lymphocytes (control for non-leukemia cytotoxicity), four days in culture, ± SD, three experiments
Method: (§4) These include B-ALL (Patient #1), relapsed AML (Patient #2), AML/CML (Patient #3), infant ALL (Patient #4), and initial ALL presenting with secondary AML (Patient #5). […] The diluted sample was then layered on a Ficoll-Paque (GE Healthcare, Piscataway, New Jersey) gradient at a 1∶2 ratio of Ficoll to diluted sample. Samples were then centrifuged 1800 rpm for 20 minutes at room temperature. The buffy coat was removed with a pipette and transferred to a new centrifuge tube and diluted with PBS. After an additional centrifugation at 1200 rpm, the white blood cell pellet was washed with PBS and centrifuged one last time. Cells were re-suspended in Opti-MEM and viable cells were counted using trypan blue (Invitrogen, Life Technologies Corporation, Burlington, Ontario) exclusion on a haemocytometer. An identical protocol was followed for the isolation of white blood cells, referred to as “normal lymphocytes” in the following paragraphs, from healthy volunteers. Samples grown in culture for up to six months were cultured in Opti-MEM medium supplemented with 10% heat inactivated FBS, penicillin/streptomycin and 2-mercaptoethanol.
as §2, §3

[15] = system: Bone Marrow Stroma; assay: Cytotoxicity assay, bone marrow stroma; assay type: cell-based, human; details: bone marrow stroma (control for non-leukemia cytotoxicity), four days in culture, ± SD, three experiments
Method: as §2, §3

[16] = system: Patient #1 B-ALL primary leukemia cells; assay: Cytotoxicity assay, primary sample Patient #1; assay type: cell-based, human; details: four days in culture, Alamar blue assay or automated microscopy, one complete study
Method: as §4, §2, §3

[17] = system: Patient #2 relapsed AML primary leukemia cells; assay: Cytotoxicity assay, primary sample Patient #2; assay type: cell-based, human; details: four days in culture, Alamar blue assay or automated microscopy, one complete study
Method: as §4, §2, §3

[18] = system: Patient #3 AML/CML primary leukemia cells; assay: Cytotoxicity assay, primary sample Patient #3; assay type: cell-based, human; details: Homo sapiens, 96 h, four days in culture, Alamar blue assay or automated microscopy, one complete study
Method: as §4, §2, §3

[19] = system: Patient #4 infant leukemia primary cells; assay: Cytotoxicity assay, primary sample Patient #4; assay type: cell-based, human; details: four days in culture, Alamar blue assay or automated microscopy, one complete study
Method: as §4, §2, §3

[20] = system: Patient #5 ALL/AML primary leukemia cells; assay: Cytotoxicity assay, primary sample Patient #5; assay type: cell-based, human; details: primary sample, four days in culture, Alamar blue assay or automated microscopy, one complete study, read-out: IC50, Patient #5 ALL/AML
Method: as §4, §2, §3

[21] = system: normal cells versus leukemia cell lines; assay: Comparison of cytotoxicity IC50 values, normal cells versus leukemia cell lines; assay type: cell-based, human; details: normal lymphocytes and bone marrow stroma versus leukemia cell lines of Table 2
Method: as §2, §3

[22] = system: Aurora-A; parameters: method as in earlier work; details: read-out: Targets (IC50 Value): Aurora-A, cited from earlier work
[23] = system: Aurora-C; details: read-out: Targets (IC50 Value): Aurora-C; literature values; ref [10],[40],[44]–[64] as listed per inhibitor in Table 1; cited from earlier work
[24] = system: CEM T-ALL cell line; assay: Cytotoxicity assay, CEM; assay type: cell-based, human; details: four days in culture, Alamar blue assay or automated microscopy, ± SD, three experiments
Method: as §1, §2, §3

[25] = system: Aurora-B; parameters: method as in earlier work; details: literature values; ref [10],[22],[27],[40],[44]–[64] as listed per inhibitor in Table 1; read-out: Targets (IC50 Value): Aurora-B; cited from earlier work
[26] = literature values, ref [10],[22],[27],[40],[44]–[64] as listed per inhibitor in Table 1

Cc1cc(Nc2cc(N3CCN(C)CC3)nc(Sc3ccc(NC(=O)C4CC4)cc3)n2)[nH]n1 [VX-680]
IC50 ([1]; Homo sapiens, 96 h): 0.4 nM | IC50 [2]: 60 ± 20 nM | IC50 ([3]; Homo sapiens, 96 h): 5 ± 3 nM | IC50 ([4]; Homo sapiens, UoC-B1, 96 h): < 0.001 nM | IC50 ([5]; Homo sapiens, NALM-6, 96 h): 0.2 nM | IC50 ([6]; Homo sapiens, KOPN-8, 96 h): 3 ± 0.5 nM | IC50 ([7]; Homo sapiens, 96 h): 0.9 nM | IC50 ([8]; Homo sapiens, MOLM-13, 96 h): 4 ± 2 nM | IC50 ([9]; Homo sapiens, 96 h): 2 ± 1 nM | IC50 ([10]; Homo sapiens, 96 h): 7 ± 3 nM | IC50 ([11]; Homo sapiens, 96 h): 7 ± 2 nM | IC50 ([12]; Homo sapiens, 96 h): 60 ± 5 nM | IC50 ([13]; Homo sapiens, 96 h): 1 ± 0.5 nM | IC50 ([14]; Homo sapiens, Lymphocyte, 96 h): 5000 ± 900 nM | IC50 ([15]; Homo sapiens, 96 h): > 10000 nM | IC50 ([16]; Homo sapiens, 96 h): 0.09 nM | IC50 ([17]; Homo sapiens, 96 h): 100 nM | IC50 [18]: 2000 nM | IC50 ([19]; Homo sapiens, 96 h): 1000 nM | IC50 ([20]; Homo sapiens, 96 h): 0.5 nM | IC50 values for the normal cells compared with IC50 values for the leukemia cell lines (potential therapeutic window) [21]: higher than the IC50 values for the leukemia cell lines | IC50 [22]: […] | IC50 [23]: […]

CCN(CCCOc1ccc2c(Nc3cc(CC(=O)Nc4cccc(F)c4)n[nH]3)ncnc2c1)CCOP(=O)(O)O [AZD1152]
IC50 ([1]; Homo sapiens, 96 h): 0.8 nM | IC50 [2]: 100 ± 60 nM | IC50 ([3]; Homo sapiens, 96 h): 200 ± 100 nM | IC50 ([4]; Homo sapiens, UoC-B1, 96 h): 0.6 nM | IC50 ([5]; Homo sapiens, NALM-6, 96 h): 8 ± 2 nM | IC50 ([6]; Homo sapiens, KOPN-8, 96 h): 0.2 nM | IC50 ([24]; Homo sapiens, 96 h): < 0.001 nM | IC50 ([7]; Homo sapiens, 96 h): < 0.001 nM | IC50 ([8]; Homo sapiens, MOLM-13, 96 h): 7 ± 3 nM | IC50 ([9]; Homo sapiens, 96 h): 0.9 nM | IC50 ([10]; Homo sapiens, 96 h): 500 ± 200 nM | IC50 ([11]; Homo sapiens, 96 h): 50 ± 20 nM | IC50 ([12]; Homo sapiens, 96 h): 300 ± 90 nM | IC50 ([13]; Homo sapiens, 96 h): 0.7 nM | IC50 ([14]; Homo sapiens, Lymphocyte, 96 h): > 10000 nM | IC50 ([15]; Homo sapiens, 96 h): > 10000 nM | IC50 ([16]; Homo sapiens, 96 h): 0.005 nM | IC50 ([17]; Homo sapiens, 96 h): 600 nM | IC50 [18]: > 10000 nM | IC50 ([19]; Homo sapiens, 96 h): > 10000 nM | IC50 ([20]; Homo sapiens, 96 h): 0.02 nM | IC50 values for the normal cells compared with IC50 values for the leukemia cell lines (potential therapeutic window) [21]: higher than the IC50 values for the leukemia cell lines | IC50 [22, 26]: […] | IC50 [25]: […]

CN(C)c1ccc(-c2nc3ncc(Cl)c(N4CCN(CC(=O)Nc5nccs5)CC4)c3[nH]2)cc1 [CCT129202]
IC50 [1]: 3000 ± 800 nM | IC50 [3]: 3000 ± 600 nM | IC50 [4]: 900 ± 90 nM | IC50 [5]: 2000 ± 800 nM | IC50 [6]: 700 ± 100 nM | IC50 [24]: 900 ± 50 nM | IC50 [7]: 2000 ± 600 nM | IC50 [8]: 5000 ± 900 nM | IC50 [9]: 100 ± 60 nM | IC50 [10]: 50 ± 5 nM | IC50 [11]: > 10000 nM | IC50 [12]: 7000 ± 800 nM | IC50 [13]: 8000 ± 500 nM | IC50 [14]: > 10000 nM | IC50 [15]: 1000 ± 700 nM | IC50 [16]: 700 nM | IC50 [17]: 400 nM | IC50 [19]: > 10000 nM | IC50 [20]: 70 nM | IC50 values for the normal cells compared with IC50 values for the leukemia cell lines (potential therapeutic window) [21]: lower than the IC50 values for the normal cells, but not as pronounced | IC50 [22, 26]: 40 nM | IC50 [25]: 200 nM
